# Results as given in patent US20160075653A1, “NEMATICIDAL N-(PHENYLCYCLOALKYL)CARBOXAMIDES AND N-(PHENYLCYCLOALKYL)THIOCARBOXAMIDES” (BAYER CROPSCIENCE AKTIENGESELLSCHAFT, priority 2013, published 2016).
# Tests used:
# [1] = Measurement of log P values by HPLC on reversed phase columns (methods [a] pH 2.3, [b] pH 2.7, [c] pH 7.8); assay type: physicochemical
# Procedure, shortened: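 Determined per EEC Directive 79/831 Annex V.A8 by reversed-phase HPLC, 10-95% acetonitrile gradient: [a] pH 2.3, 0.1% phosphoric acid; [b] LC-MS, pH 2.7, 0.1% formic acid; [c] LC-MS, pH 7.8, 0.001 molar ammonium hydrogen carbonate. Calibrated with C3-C16 alkan-2-ones by retention-time interpolation.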
# Cooperia curticei = Cooperia curticei test (COOPCU), larval mortality; assay type: in vivo; conditions: application rate 4 ppm, after 5 days
# Method: Cooneria curtice—Test (COOPCU) Solvent: dimethyl sulfoxide
# To produce a suitable preparation of active compound, 10 mg of active compound are dissolved in 0.5 ml solvent, and the concentrate is diluted with “Ringer's solution” to the desired concentration.
# Approximately 40 nematode larvae (Cooperia curticei) are transferred into a test tube containing the compound solution.
# After 5 days percentage of larval mortality is recorded. 100% efficacy means all larvae are killed; 0% efficacy means no larvae are killed.
# Meloidogyne incognita = Meloidogyne incognita test (MELGIN), gall formation on salad seedlings; assay type: in vivo; conditions: application rate 20 ppm, after 14 days
# Procedure, shortened: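 Sand vessels treated with acetone-formulated compound diluted in water, then inoculated with M. incognita eggs and larvae and sown with salad seeds. Root galling assessed after 14 days: 100% = no galls, 0% = galling equal to untreated plants.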
# [2] = HPLC reversed phase, method [b] (pH 2.7)
# [3] = method [b], HPLC reversed phase, pH 2.7
# [4] = method [c], HPLC reversed phase, pH 7.8
# [5] = HPLC reversed phase, method [c] pH 7.8
# [6] = HPLC on reversed phase column, method [b], pH 2.7
# [7] = HPLC on reversed phase column, method [c], pH 7.8
smiles,measurement,setting,value
O=C(N[C@@H]1C[C@@H]1c1ccc(Cl)cc1Cl)c1ccccc1Br (relative stereo) [Compound 579],logP,[1]; [2],3.32^[b]
same,activity (larval mortality),Cooperia curticei,80%
O=C(NC1CC1c1ccc(Cl)cc1Cl)c1sccc1Cl (stereo not shown) [Compound 213],nematicidal activity (percentage of gall formation; 100% = no galls),Meloidogyne incognita,100%
same,logP,[1]; [3],4.08^[b]
same,logP,[1]; [4],4.02^[c];
O=C(NC1CC1c1ccc(Cl)cc1Cl)c1occc1Br (stereo not shown) [Compound 214],nematicidal activity (percentage of gall formation; 100% = no galls),Meloidogyne incognita,100%
same,logP,[1]; [3],3.56^[b]
same,logP,[1]; [4],3.44^[c];
O=C(NC1CCC1c1ccccc1C(F)(F)F)c1ncccc1Cl (stereo not shown) [Compound 215],nematicidal activity (percentage of gall formation; 100% = no galls),Meloidogyne incognita,90%
same,logP,[1]; [3],3.01^[b]
O=C(NC1CCC1c1ccccc1C(F)(F)F)c1ccccc1Br (stereo not shown) [Compound 216],nematicidal activity (percentage of gall formation; 100% = no galls),Meloidogyne incognita,100%
same,logP,[1]; [3],3.32^[b]
O=C(NC1CCC1c1ccccc1C(F)(F)F)c1ccc(Cl)cc1Cl (stereo not shown) [Compound 217],nematicidal activity (percentage of gall formation; 100% = no galls),Meloidogyne incognita,90%
same,logP,[1]; [3],3.81^[b]
O=C(NC1CCC1c1c(F)cccc1F)c1ccccc1Br (stereo not shown) [Compound 227],nematicidal activity (percentage of gall formation; 100% = no galls),Meloidogyne incognita,100%
same,logP,[1]; [3],2.97^[b]
O=C(NC1CCC1c1ccccc1C(F)(F)F)c1cccnc1C(F)(F)F (stereo not shown) [Compound 235],nematicidal activity (percentage of gall formation; 100% = no galls),Meloidogyne incognita,100%
same,logP,[1]; [3],2.94^[b]
O=C(NC1CC1c1ccc(Cl)cc1)c1ccccc1C(F)(F)F (stereo not shown) [Compound 271],nematicidal activity (percentage of gall formation; 100% = no galls),Meloidogyne incognita,90%
same,logP,[1]; [2],2.98^[b]
same,logP,[1]; [5],2.94^[c];
O=C(NC1CCCC1c1ccccc1Cl)c1ccccc1C(F)(F)F (stereo not shown) [Compound 296],nematicidal activity (percentage of gall formation; 100% = no galls),Meloidogyne incognita,90%
same,logP,[1]; [2],3.55^[b]
O=C(NC1CCCC1c1ccccc1Cl)c1cccnc1C(F)(F)F (stereo not shown) [Compound 297],nematicidal activity (percentage of gall formation; 100% = no galls),Meloidogyne incognita,100%
same,logP,[1]; [2],3.05^[b]
O=C(NC1CCCC1c1c(F)cccc1F)c1ccccc1Cl (stereo not shown) [Compound 311],nematicidal activity (percentage of gall formation; 100% = no galls),Meloidogyne incognita,90%
same,logP,[1]; [2],3.24^[b]
O=C(NC1CCCC1c1c(F)cccc1F)c1cccnc1C(F)(F)F (stereo not shown) [Compound 313],nematicidal activity (percentage of gall formation; 100% = no galls),Meloidogyne incognita,100%
same,logP,[1]; [2],2.87^[b]
O=C(NC1CCCC1c1c(F)cccc1F)c1ccccc1I (stereo not shown) [Compound 322],nematicidal activity (percentage of gall formation; 100% = no galls),Meloidogyne incognita,90%
same,logP,[1]; [2],3.40^[b]
O=C(NC1CCCC1c1ccccc1Br)c1cccnc1C(F)(F)F (stereo not shown) [Compound 346],nematicidal activity (percentage of gall formation; 100% = no galls),Meloidogyne incognita,100%
same,logP,[1]; [2],3.13^[b]
O=C(NC1CCCC1c1ccccc1Br)c1cccnc1Cl (stereo not shown) [Compound 348],nematicidal activity (percentage of gall formation; 100% = no galls),Meloidogyne incognita,90%
same,logP,[1]; [2],2.80^[b]
O=C(NC1CCCC1c1ccccc1Br)c1ccccc1Cl (stereo not shown) [Compound 349],nematicidal activity (percentage of gall formation; 100% = no galls),Meloidogyne incognita,90%
same,logP,[1]; [2],3.52^[b]
O=C(NC1CCCC1c1ccc(Cl)cc1Cl)c1ccccc1I (stereo not shown) [Compound 352],nematicidal activity (percentage of gall formation; 100% = no galls),Meloidogyne incognita,100%
same,logP,[1]; [2],4.04^[b]
O=C(NC1CCCC1c1ccc(Cl)cc1Cl)c1ccccc1C(F)(F)F (stereo not shown) [Compound 353],nematicidal activity (percentage of gall formation; 100% = no galls),Meloidogyne incognita,100%
same,logP,[1]; [2],4.04^[b]
O=C(NC1CCCC1c1ccc(Cl)cc1Cl)c1cccnc1C(F)(F)F (stereo not shown) [Compound 358],nematicidal activity (percentage of gall formation; 100% = no galls),Meloidogyne incognita,100%
same,logP,[1]; [2],3.54^[b]
O=C(NC1CCCCC1c1ccc(Cl)cc1Cl)c1cccnc1C(F)(F)F (stereo not shown) [Compound 414],nematicidal activity (percentage of gall formation; 100% = no galls),Meloidogyne incognita,100%
same,logP,[1]; [2],4.03^[b]
O=C(NC1CC1c1ccc(Cl)cc1Cl)c1ccccc1C(F)(F)F (stereo not shown) [Compound 424],nematicidal activity (percentage of gall formation; 100% = no galls),Meloidogyne incognita,100%
same,logP,[1]; [2],3.46^[b]
O=C(NC1CC1c1ccc(Cl)cc1Cl)c1cccnc1Cl (stereo not shown) [Compound 425],nematicidal activity (percentage of gall formation; 100% = no galls),Meloidogyne incognita,100%
same,logP,[1]; [2],2.62^[b]
O=C(NC1CCC1c1ccccc1C(F)(F)F)c1ccccc1 (stereo not shown) [Compound 426],nematicidal activity (percentage of gall formation; 100% = no galls),Meloidogyne incognita,100%
same,logP,[1]; [2],3.08^[b]
O=C(NC1CCC1c1ccccc1C(F)(F)F)c1ccccc1I (stereo not shown) [Compound 427],nematicidal activity (percentage of gall formation; 100% = no galls),Meloidogyne incognita,100%
same,logP,[1]; [2],3.44^[b]
O=C(NC1CCC1c1ccccc1C(F)(F)F)c1c(F)cccc1F (stereo not shown) [Compound 430],nematicidal activity (percentage of gall formation; 100% = no galls),Meloidogyne incognita,100%
same,logP,[1]; [2],3.09^[b]
O=C(NC1CCC1c1ccccc1C(F)(F)F)c1ccccc1Cl (stereo not shown) [Compound 432],nematicidal activity (percentage of gall formation; 100% = no galls),Meloidogyne incognita,100%
same,logP,[1]; [2],3.30^[b]
O=C(NC1CCC1c1ccccc1C(F)(F)F)c1ccccc1C(F)(F)F (stereo not shown) [Compound 434],nematicidal activity (percentage of gall formation; 100% = no galls),Meloidogyne incognita,90%
same,logP,[1]; [2],3.44^[b]
O=C(NC1CCC1c1c(F)cccc1F)c1ccccc1I (stereo not shown) [Compound 440],nematicidal activity (percentage of gall formation; 100% = no galls),Meloidogyne incognita,90%
same,logP,[1]; [2],3.13^[b]
O=C(NC1CCC1c1c(F)cccc1F)c1ccccc1Cl (stereo not shown) [Compound 443],nematicidal activity (percentage of gall formation; 100% = no galls),Meloidogyne incognita,90%
same,logP,[1]; [2],2.97^[b]
O=C(NC1CC1c1ccc(Cl)cc1)c1nccnc1Cl (stereo not shown) [Compound 461],nematicidal activity (percentage of gall formation; 100% = no galls),Meloidogyne incognita,100%
same,logP,[1]; [2],2.29^[b]
same,logP,[1]; [5],2.27^[c];
O=C(NC1CC1c1ccc(Cl)cc1)c1ncccc1C(F)(F)F (stereo not shown) [Compound 462],nematicidal activity (percentage of gall formation; 100% = no galls),Meloidogyne incognita,100%
same,logP,[1]; [2],2.85^[b]
same,logP,[1]; [5],2.81^[c];
O=C(NC1CC1c1ccc(Cl)cc1)c1cccnc1C(F)F (stereo not shown) [Compound 465],nematicidal activity (percentage of gall formation; 100% = no galls),Meloidogyne incognita,100%
same,logP,[1]; [2],2.15^[b]
same,logP,[1]; [5],2.14^[c];
O=C(NC1CCC1c1ccc(Cl)cc1Cl)c1ccccc1Br (stereo not shown) [Compound 472],nematicidal activity (percentage of gall formation; 100% = no galls),Meloidogyne incognita,90%
same,logP,[1]; [2],3.60^[b]
O=C(NC1CCC1c1ccc(Cl)cc1Cl)c1c(F)cccc1F (stereo not shown) [Compound 473],nematicidal activity (percentage of gall formation; 100% = no galls),Meloidogyne incognita,90%
same,logP,[1]; [2],3.36^[b]
O=C(NC1CCC1c1ccc(Cl)cc1Cl)c1ccccc1C(F)(F)F (stereo not shown) [Compound 476],nematicidal activity (percentage of gall formation; 100% = no galls),Meloidogyne incognita,90%
same,logP,[1]; [2],3.72^[b]
O=C(NC1CCC1c1ccc(F)cc1C(F)(F)F)c1ncccc1Cl (stereo not shown) [Compound 479],nematicidal activity (percentage of gall formation; 100% = no galls),Meloidogyne incognita,100%
same,logP,[1]; [2],3.11^[b]
O=C(NC1CCC1c1ccc(Cl)cc1Cl)c1cccnc1C(F)(F)F (stereo not shown) [Compound 481],nematicidal activity (percentage of gall formation; 100% = no galls),Meloidogyne incognita,100%
same,logP,[1]; [2],3.20^[b]
O=C(NC1CCC1c1ccc(Cl)cc1Cl)c1c(F)cccc1F (stereo not shown) [Compound 482],nematicidal activity (percentage of gall formation; 100% = no galls),Meloidogyne incognita,90%
same,logP,[1]; [2],3.70^[b]
Cn1cc(C(=O)NC2CCC2c2ccc(F)cc2C(F)(F)F)c(C(F)F)n1 (stereo not shown) [Compound 485],nematicidal activity (percentage of gall formation; 100% = no galls),Meloidogyne incognita,90%
same,logP,[1]; [2],2.84^[b]
O=C(NC1CCC1c1cc(F)ccc1C(F)(F)F)c1cccc(Cl)c1 (stereo not shown) [Compound 517],nematicidal activity (percentage of gall formation; 100% = no galls),Meloidogyne incognita,100%
same,logP,[1]; [2],3.65^[b]
O=C(NC1CCC1c1cc(F)ccc1C(F)(F)F)c1ncccc1Cl (stereo not shown) [Compound 518],nematicidal activity (percentage of gall formation; 100% = no galls),Meloidogyne incognita,100%
same,logP,[1]; [2],3.08^[b]
O=C(NC1CCC1c1ccc(F)cc1C(F)(F)F)c1sccc1I (stereo not shown) [Compound 519],nematicidal activity (percentage of gall formation; 100% = no galls),Meloidogyne incognita,90%
same,logP,[1]; [2],4.09^[b]
O=C(NC1CCC1c1ccc(F)cc1C(F)(F)F)c1sccc1I (stereo not shown) [Compound 520],nematicidal activity (percentage of gall formation; 100% = no galls),Meloidogyne incognita,100%
same,logP,[1]; [2],3.82^[b]
O=C(NC1CCC1c1ccccc1C(F)(F)F)c1nccnc1C(F)(F)F (stereo not shown) [Compound 684],nematicidal activity (percentage of gall formation; 100% = no galls),Meloidogyne incognita,100%
same,logP,[1]; [6],3.15^[b]
same,logP,[1]; [7],3.10^[c];
O=C(NC1CCC1c1ccccc1C(F)(F)F)c1ncccc1Br (stereo not shown) [Compound 695],nematicidal activity (percentage of gall formation; 100% = no galls),Meloidogyne incognita,100%
same,logP,[1]; [6],3.17^[b]
same,logP,[1]; [7],3.10^[c];
